Here are results for two compounds from patent EP2264054A1, “Cloning, yeast expression, purification and biological activity of a truncated form of the soybean 7S globulin alfa ' subunit involved in Hep G2 cell cholesterol homeostasis” (Indena S.p.A., priority 2009, dated 2010).

The test system of assay [1] is HepG2 cells. Kind of assay: Degradation of 125I-LDL by HepG2 cells. Conditions: 1.0 µmol/L. The assay is classed as cell-based, human.
Description: Cell cultures. […] Cells were grown in monolayers in 90 mm-diameter Petri dishes, and maintained at 37°C in a humidified atmosphere of 95% air, 5% CO2 in MEM supplemented with 10% fetal calf serum (FCS), non essential amino acid solution (1%, v/v), penicillin (10^5 U/L), streptomycin (0.1 g/L), tricine buffer (20 mmol/L, pH 7.4), NaHCO3 (24 mmol/L) and sodium pyruvate (0.11 g/L). For experiments designed to evaluate the LDL receptor modulation, cells were seeded in 35 mm plastic dishes (3-5 x 10^5 cells) and used just before reaching confluence. In all cell culture experiments, the medium was changed every 2-3 days. In order to assess cell viability, culture media from cells exposed to tα' at different concentrations were tested by methyltetrazolium salts (MTT) assay, essentially as described in ref. 9. Cell enzyme leakage was determined by measuring lactate dehydrogenase (LDH) activity, using a kinetic (LDH/LD) diagnostic kit (Sigma Diagnostics). […]
Uptake and degradation of ^125I-LDL. […] Specific uptake (binding + internalization) and degradation of ^l25I-LDL were evaluated as previously reported [2]. […] Differences in cell uptake and degradation of LDL after cell incubation with tα' at different concentrations were determined by ANOVA followed by Dunnett's test. Values are expressed as means ± SD; P values < 0.05 were considered as statistically significant.
Assay [2] concerns HepG2 cells. The assay can be described thus: Uptake of 125I-LDL by HepG2 cells. Conditions: 1.0 µmol/L. In kind it is cell-based, human. An excerpt:
Cell cultures. The established human hepatoma cell line (HepG2) was obtained from American Type Culture Collection (Rockville, MD). Eagle's minimum essential medium (MEM), fetal calf serum, trypsin-EDTA (1x), penicillin (10^5 U/L), streptomycin ([…]), tricine buffer (1 mmol/L, pH 7.4) and non-essential amino acid solutions (100x) were from GIBCO (Madison, WI). Petri dishes were from COSTAR (Cambridge, MA). Filters were from Millipore (Bedford, MA). The Protein Coomassie Plus Protein Assay kit was purchased from Pierce (Rockford, IL, USA). ^125Iodine, carrier free, in 100 mmol/L NaOH, was from Perkin Elmer Life Sciences (Boston, MA). Sephadex G25 columns (PD10) were from Pharmacia Biotech (Uppsala, Sweden). LDH and MTT kit were from Sigma Diagnostics (Milano-Italy). All other chemicals were of analytical grade from Merck (Darmstadt, Germany). […] Cell enzyme leakage was determined by measuring lactate dehydrogenase (LDH) activity, using a kinetic (LDH/LD) diagnostic kit (Sigma Diagnostics). […]
Uptake and degradation of ^125I-LDL. […] Specific uptake (binding + internalization) and degradation of ^l25I-LDL were evaluated as previously reported. […] Differences in cell uptake and degradation of LDL after cell incubation with tα' at different concentrations were determined by ANOVA followed by Dunnett's test. Values are expressed as means ± SD; P values < 0.05 were considered as statistically significant.

Assay [3] deals with LDL-R. Conditions: Hep G2 cells exposed to the peptide at 100 µM; cited from earlier work.
Setting [4] is: 24 h preincubation in MEM with 5% LPDS, then 125I-LDL 7.5 mg/L for 5 h, mean ± SD.

For `CCC(C)(C)C(=O)O[C@H]1C[C@@H](C)C=C2C=C[C@H](C)[C@H](CC[C@@H]3C[C@@H](O)CC(=O)O3)[C@H]21` [Simvastatin], the figures for the Degradation in assay [1] (setting [4]) and in assay [1] (relative to LPDS = 100) were 195 ± 7.9 ng125I-LDL/ mg cell protein and 250%, respectively. In addition, the Uptake in assay [2] (setting [4]) is on record as 250 ± 11.2 ng125I-LDL/ mg cell proteins; in assay [2] (relative to LPDS = 100), 278%.
Turning to “FVVNATSN [LDL-R transcription stimulating peptide deriving from the 7S globulin β chain, from a soybean hydrolysate and by chemical synthesis]”, in assay [3], the “increased LDL-R transcription” value is listed as “+148%”.
